From ChEMBL document CHEMBL1201862, “PubChem BioAssay data set” (2004)
Activity calls are given as the source filed them.

Assays:
[1] = target: FAD-linked sulfhydryl oxidase ALR (Homo sapiens, UniProt P55789); assay: inhibitors of human ALR sulfhydryl oxidase, dose response, biochemical, H2O2 detection, luminescence, cherry-pick (AID 493248)
[2] = inhibitors of firefly luciferase expression or activity, dose response, H4 neuroglioma cells, luminescence (AID 1990); format: functional, cell-based
[3] = Luminescence Cell-Based Dose Response HTS to Identify Inhibitors of 5'UTR Stem-Loop Driven Prion Protein mRNA Translation in H4 Neuroglioblastoma Cells. [Related pubchem assays: 1827 (Project Summary), 1813 (Primary HTS)]; format: functional
[4] = inhibitors of SNCA 5'UTR-driven reporter translation, confirmation, H4 neuroglioma cells, luminescence (AID 1988); format: functional, cell-based
[5] = system: Streptococcus sp. 'group A'; assay: growth inhibition of control SK(-) GAS strain, dose response, counter-screen for streptokinase expression inhibitor project, luminescence, kanamycin, BacTiterGlo, confirmation (AID 1900); format: functional, organism-based
Streptokinase A = target: T1, Streptokinase A (Streptococcus pyogenes serotype M1, UniProt P10520); assay: S. pyogenes streptokinase expression inhibitors, potency, dose response, plasminogen activation absorbance, OD405 (AID 1914); format: functional, Streptococcus pyogenes M1 GAS;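 also: secreted streptokinase activity via plasminogen activation per viability signal from cell pellet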
T1 sequence (P10520 whole entry): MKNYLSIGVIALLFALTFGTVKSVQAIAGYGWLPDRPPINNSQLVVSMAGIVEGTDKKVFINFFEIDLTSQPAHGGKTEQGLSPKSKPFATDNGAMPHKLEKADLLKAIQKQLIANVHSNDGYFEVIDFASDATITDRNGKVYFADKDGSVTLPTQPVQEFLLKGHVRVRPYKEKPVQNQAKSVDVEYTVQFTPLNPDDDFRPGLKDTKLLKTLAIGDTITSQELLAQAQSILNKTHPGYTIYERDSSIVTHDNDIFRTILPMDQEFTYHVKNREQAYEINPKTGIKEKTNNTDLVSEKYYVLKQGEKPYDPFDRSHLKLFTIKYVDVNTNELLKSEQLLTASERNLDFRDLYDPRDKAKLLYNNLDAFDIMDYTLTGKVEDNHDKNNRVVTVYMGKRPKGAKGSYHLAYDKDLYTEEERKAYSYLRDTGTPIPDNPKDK

Streptococcus = assay: Group A Streptococcus viability loss, dose response, counter-screen for streptokinase expression inhibitor project, luminescence, BacTiterGlo (AID 1915); format: functional, organism-based;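 also: potency for reduction of bacterial viability or growth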
[6] = Luminescence Cell-Based Dose Retest to Confirm Inhibitors of Cancer Stem Cells. [Related pubchem assays (depositor defined):AID2717, AID2721]; format: functional; conditions: Homo sapiens
[7] = inhibitors of intracellular T. cruzi replication, confirmation, NIH3T3 host cells, beta-gal luminescence (AID 2044); format: functional, cell-based;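 also: intracellular parasites grown in NIH/3T3 mouse fibroblasts as host cells; luminescent beta-galactosidase reporter signal from transgenic T. cruzi replicating inside host cells; inhibitors lower the luminescence signal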
[8] = cytotoxicity toward NIH3T3 fibroblasts, dose response, counter-screen, cell-based, ATP luminescence, mouse fibroblasts (AID 2010); format: functional;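 also: cells exposed to compound for about 90 hours before reading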
Cytochrome P450 2C19 = Cytochrome P450 2C19 (Homo sapiens, UniProt P33261); assay: Cytochrome panel assay with activity outcomes. Panel member name: p450-cyp2c19 Compounds with AC50 equal or less than 10 uM are considered active; format: functional; conditions: read-out: AC50
[9] = target: T2, Corticotropin-releasing factor receptor 2/Corticotropin-releasing factor-binding protein (Homo sapiens, UniProt P24387+Q13324); assay: activators of CRF receptor 2 with binding protein – uHTS hits, confirmation (AID 602473); format: functional; conditions: read-out: EC50_Mean
T2 sequence (Q13324 whole entry): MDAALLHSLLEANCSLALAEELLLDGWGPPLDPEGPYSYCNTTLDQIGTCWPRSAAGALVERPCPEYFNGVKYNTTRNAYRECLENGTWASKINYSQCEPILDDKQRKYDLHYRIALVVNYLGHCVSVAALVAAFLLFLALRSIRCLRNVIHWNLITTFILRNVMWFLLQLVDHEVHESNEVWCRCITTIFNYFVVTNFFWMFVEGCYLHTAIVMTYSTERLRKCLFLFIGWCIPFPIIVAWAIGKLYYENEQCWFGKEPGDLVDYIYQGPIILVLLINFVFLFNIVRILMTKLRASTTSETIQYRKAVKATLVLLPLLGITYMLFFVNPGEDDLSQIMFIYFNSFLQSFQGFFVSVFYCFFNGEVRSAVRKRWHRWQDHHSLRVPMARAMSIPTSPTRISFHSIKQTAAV
T2 sequence (P24387 whole entry): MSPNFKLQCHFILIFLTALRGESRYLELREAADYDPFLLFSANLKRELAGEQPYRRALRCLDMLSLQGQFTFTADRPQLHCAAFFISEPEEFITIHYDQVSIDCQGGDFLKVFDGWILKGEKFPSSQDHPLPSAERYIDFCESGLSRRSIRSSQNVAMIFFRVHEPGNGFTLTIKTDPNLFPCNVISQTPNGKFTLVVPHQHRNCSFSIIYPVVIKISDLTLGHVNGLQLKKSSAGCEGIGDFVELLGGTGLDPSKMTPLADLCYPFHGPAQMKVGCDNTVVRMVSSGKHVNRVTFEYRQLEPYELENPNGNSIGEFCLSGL

[10] = target: T3, Rac GTPase-activating protein 1 (Homo sapiens, UniProt Q9H0H5); assay: MgcRacGAP GTPase-activating activity inhibitors, confirmation, biochemical, ADP Hunter fluorescence, primary and confirmatory (AID 624330); format: functional
T3 sequence (Q9H0H5 whole entry): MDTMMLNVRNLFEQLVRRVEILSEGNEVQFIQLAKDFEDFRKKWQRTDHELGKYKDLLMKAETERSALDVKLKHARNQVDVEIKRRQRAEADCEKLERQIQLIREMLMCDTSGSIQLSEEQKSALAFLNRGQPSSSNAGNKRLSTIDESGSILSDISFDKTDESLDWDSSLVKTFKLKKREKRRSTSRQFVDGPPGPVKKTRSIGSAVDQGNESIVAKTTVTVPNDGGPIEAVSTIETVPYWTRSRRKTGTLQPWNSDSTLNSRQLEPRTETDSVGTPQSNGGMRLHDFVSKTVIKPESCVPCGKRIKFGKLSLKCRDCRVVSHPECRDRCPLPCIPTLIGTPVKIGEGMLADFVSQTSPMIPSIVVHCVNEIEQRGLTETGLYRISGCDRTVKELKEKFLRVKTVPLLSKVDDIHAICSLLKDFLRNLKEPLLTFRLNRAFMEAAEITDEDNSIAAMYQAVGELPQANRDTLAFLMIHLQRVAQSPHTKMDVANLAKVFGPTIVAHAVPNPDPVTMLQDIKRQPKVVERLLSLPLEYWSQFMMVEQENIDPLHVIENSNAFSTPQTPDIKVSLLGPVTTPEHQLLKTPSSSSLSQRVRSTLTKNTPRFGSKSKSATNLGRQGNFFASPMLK

[11] = Shn3 3'UTR reporter inhibitors, dose response, cell-based, Clone20 osteoblasts, firefly luciferase, cherry-picked (AID 624132); format: functional;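 also: firefly luciferase luminescence from reporter carrying the Shn3 3'UTR in osteoblasts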
Paired box protein Pax-8 = Paired box protein Pax-8 (Homo sapiens, UniProt Q06710); assay: inhibitors of PAX8-driven TPO luciferase reporter, dose response, RMG-I cells, cherry-pick (AID 687027); format: functional, cell-based;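 also: luciferase reporter driven by Pax8 target thyroperoxidase promoter measured by SteadyGlo luminescence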
Sequence of Paired box protein Pax-8 (Q06710 whole entry): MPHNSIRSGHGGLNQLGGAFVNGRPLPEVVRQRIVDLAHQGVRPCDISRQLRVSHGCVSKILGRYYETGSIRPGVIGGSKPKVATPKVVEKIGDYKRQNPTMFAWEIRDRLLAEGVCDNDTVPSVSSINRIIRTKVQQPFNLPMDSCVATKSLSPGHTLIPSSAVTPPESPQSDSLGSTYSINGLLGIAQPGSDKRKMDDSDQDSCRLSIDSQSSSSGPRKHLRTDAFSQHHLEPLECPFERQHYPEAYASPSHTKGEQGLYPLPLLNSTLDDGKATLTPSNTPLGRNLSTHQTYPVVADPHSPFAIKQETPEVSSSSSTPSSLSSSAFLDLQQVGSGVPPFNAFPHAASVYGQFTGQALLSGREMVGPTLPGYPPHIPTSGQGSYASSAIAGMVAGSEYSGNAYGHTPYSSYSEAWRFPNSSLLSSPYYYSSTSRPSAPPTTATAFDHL

Sequence of FAD-linked sulfhydryl oxidase ALR (P55789 whole entry): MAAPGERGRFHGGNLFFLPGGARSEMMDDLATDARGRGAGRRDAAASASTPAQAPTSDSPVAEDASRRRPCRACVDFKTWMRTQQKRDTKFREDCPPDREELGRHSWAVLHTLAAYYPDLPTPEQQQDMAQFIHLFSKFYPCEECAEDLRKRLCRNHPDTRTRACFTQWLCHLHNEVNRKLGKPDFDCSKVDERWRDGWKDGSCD
Sequence of Cytochrome P450 2C19 (P33261 whole entry): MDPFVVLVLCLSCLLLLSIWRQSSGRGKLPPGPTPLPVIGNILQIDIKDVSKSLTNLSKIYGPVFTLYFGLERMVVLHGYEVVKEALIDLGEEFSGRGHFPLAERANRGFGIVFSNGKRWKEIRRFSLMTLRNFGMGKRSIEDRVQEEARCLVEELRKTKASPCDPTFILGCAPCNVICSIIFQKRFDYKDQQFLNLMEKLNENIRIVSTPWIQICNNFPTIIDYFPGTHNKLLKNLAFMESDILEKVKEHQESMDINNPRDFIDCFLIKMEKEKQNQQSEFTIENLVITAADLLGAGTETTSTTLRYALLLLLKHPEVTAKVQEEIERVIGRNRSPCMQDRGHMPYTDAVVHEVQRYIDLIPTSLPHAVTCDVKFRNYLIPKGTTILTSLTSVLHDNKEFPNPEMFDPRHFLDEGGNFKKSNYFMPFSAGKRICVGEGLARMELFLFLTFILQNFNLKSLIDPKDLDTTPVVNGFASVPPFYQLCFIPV

COc1ccc2[nH]c(C)c(-c3csc(N)n3)c2c1
AC50 [1]: 5.23 µM (active)

Cc1ccc(-c2nc(-c3cccnc3)sc2CC(=O)Nc2ccc(C)c(Cl)c2)cc1
EC50 [2]: > 120 µM (not active)
EC50 [3]: 0.3 µM (active)
EC50 [4]: > 120 µM (not active)

O=[N+]([O-])c1cccnc1N1CCC(c2cc(-c3ccc(Cl)cc3Cl)[nH]n2)CC1
EC50 [5]: 2.31 µM (active)
EC50 (Streptokinase A): 4.61 µM (active)
EC50 (Streptococcus): 13.4 µM (active)
AC50 [6]: 4.74 µM (active)

O=C(COC(=O)c1c2c(nc3ccccc13)/C(=C\c1cccs1)CCC2)Nc1ccccc1
EC50 [7]: 1.9 µM (active)
EC50 [8]: > 60 µM (inconclusive)
AC50 [6]: 1.54 µM (active)

COc1ccc(Cc2nnc(NC(=O)c3ccc(OC)c(OC)c3)s2)cc1OC
EC50 [2]: > 120 µM (not active)
EC50 [3]: > 120 µM (not active)
EC50 [4]: > 120 µM (not active)

CCCCCNCC(=O)Nc1cccc(C(=O)Nc2cccc(C(F)(F)F)c2)c1
AC50 [6]: 9.98 µM (active)

O=C1/C(=C\c2cc(Br)cc(Br)c2O)SC(=S)N1Cc1ccccc1
AC50 [6]: 0.894 µM (active)

Cc1ccccc1CS(=O)(=O)c1ccc(C(=O)N2CCOCC2)cc1[N+](=O)[O-]
EC50 [2]: > 120 µM (not active)
EC50 [3]: > 120 µM (not active)
EC50 [4]: > 120 µM (not active)

N#Cc1c2n(c3c(S)ncnc13)CCCCC2
AC50 [1]: 1.65 µM (active)
AC50 (Cytochrome P450 2C19): 25.1 µM (inconclusive)

Cc1ccc(-c2ccc(CCC(=O)O)n2NC(=O)c2cccs2)cc1
AC50 [1]: 8.15 µM (active)

COCCNc1nnnc2c1sc1nc(N3CCOCC3)c3c(c12)CC(C)(C)OC3
EC50 [2]: 15.8 µM (active)
EC50 [3]: > 120 µM (not active)
EC50 [4]: > 120 µM (not active)

CC(C)(C)NC(=O)c1ccc2c(c1)C1C3CCC(C3)C1C(c1ccccc1)N2 (stereo unspecified)
EC50 [2]: > 120 µM (not active)
EC50 [3]: > 120 µM (not active)
EC50 [4]: > 120 µM (not active)

COc1ccc(C(=O)NC(=S)N2CCN(c3ccccc3OC)CC2)cc1OC
EC50 [2]: > 120 µM (not active)
EC50 [3]: > 120 µM (not active)
EC50 [4]: > 120 µM (not active)

Nc1nc2c3ccccc3nc(Cc3ccccc3)n2n1
EC50 [2]: 29.4 µM (active)
EC50 [3]: > 120 µM (not active)
EC50 [4]: 20.8 µM (active)

N#Cc1ccc(NCCc2ccccn2)c([N+](=O)[O-])c1
EC50 [2]: 23.7 µM (active)
EC50 [3]: > 120 µM (not active)
EC50 [4]: > 120 µM (not active)

Cc1cc(C)nc(NC(=O)/C=C/c2cccs2)c1
AC50 [6]: 6.68 µM (active)

O=[N+]([O-])c1cc(-c2cnc3ccccc3n2)ccc1Oc1ccc(Cl)cc1
AC50 [6]: 0.628 µM (active)

Cc1ccc(-n2c(C)cc(C(=O)CN3C(=O)C(=O)N(C4CCCC4)C3=O)c2C)cc1
EC50 [9]: > 53 µM (inactive)

CCOC(=O)C(O)(c1ccc(NC(=S)NC(=O)c2ccc(Cl)cc2Cl)cc1)C(F)(F)F (stereo unspecified)
EC50 [9]: 15.9 µM (active)

Cc1cc(NC(=O)CN2C(=O)NC(C)(c3ccc(OC(F)F)cc3)C2=O)no1 (stereo unspecified)
EC50 [9]: 14.4 µM (active)

Cc1onc(-c2c(Cl)cccc2Cl)c1C(=O)NNc1ccccc1
AC50 [6]: 1.44 µM (active)

CCOC(=O)Nc1sc(C(=O)N(C)C)c(C)c1C(=O)OCC
EC50 [2]: 23.9 µM (active)
EC50 [3]: > 120 µM (not active)
EC50 [4]: 76.5 µM (active)

CC1(C)Cc2nc3[nH]nc(N)c3cc2CO1
AC50 [1]: 4.26 µM (active)

Cc1cc2c3c(ccc(C)c3n1)N=CN2c1ccccc1
EC50 [2]: 12.3 µM (active)
EC50 [3]: 23.3 µM (active)
EC50 [4]: 119 µM (active)

CC(=O)N1CCN(c2ccc(NCc3cccc(C)c3)cc2)CC1
AC50 [1]: 0.787 µM (active)
IC50 [10]: 9.89 µM (active)

CN1C(=O)c2ccccc2NC(=O)C1Cc1ccccc1 (stereo unspecified)
AC50 [1]: 3.26 µM (active)

CC(=O)Nc1ccc(N2C(=O)CSC2c2ccccc2)cc1 (stereo unspecified)
AC50 [1]: 0.025 µM (active)

CCCNC(=O)c1onc(CSc2ccc(Cl)cc2)c1C(=O)NCCC(C)C
AC50 [6]: 1.93 µM (active)

CCc1cccc(CC)c1N1C(=O)C2=C(SCCCS2)C1=O
EC50 [9]: 6.9 µM (active)

COc1ccc(OC)c(NC(=O)c2cc(-c3cc(F)ccc3OCC3CCCO3)[nH]n2)c1 (stereo unspecified)
AC50 [11]: 10.5 µM (active)

Cc1ccc(S(=O)(=O)Nc2ccc3c(c2)C(=O)N([C@@H](C)CO)C[C@@H](C)[C@@H](CN(C)Cc2ccc(Cl)c(Cl)c2)OCCCC[C@@H](C)O3)cc1
AC50 (Paired box protein Pax-8): 9.18 µM (active)

C[C@@H]1CCCCO[C@H](CN(C)C(=O)Nc2ccc(C(F)(F)F)cc2)[C@@H](C)CN([C@@H](C)CO)C(=O)c2cc(NC(=O)Nc3ccccc3)ccc2O1
AC50 (Paired box protein Pax-8): 1.89 µM (active)

C[C@@H]1CN([C@@H](C)CO)C(=O)Cc2cc(NC(=O)C3CC3)ccc2O[C@H]1CN(C)Cc1ccc(-c2ccccc2)cc1
AC50 (Paired box protein Pax-8): 18.9 µM (active)

O=c1/c(=C/c2ccc(O)cc2)sc2n1CCCN=2
AC50 [1]: 1.16 µM (active)
IC50 [10]: 20.1 µM (active)

Cc1ccc(N/N=C2/CCCNC2=O)cc1
AC50 [1]: 2.66 µM (active)

CC1=CC(C)[C@H](/C=N/n2c(=O)[nH]c3c([nH]c4ccc(Br)cc43)c2=O)C(C)C1 (stereo partly specified)
EC50 [7]: 2.06 µM (active)
EC50 [8]: > 60 µM (not active)
AC50 [6]: 0.876 µM (active)
